The values that follow come from patent publication EP4428121A1, “MODULATORS OF SORTILIN ACTIVITY” (Vesper Bio Aps, priority 2023, dated 2024).

In the assay the target is T1, Human (6-His)Sortilin (Homo sapiens, UniProt Q99523).
T1 construct: purchased RnD Systems
T1 sequence (Q99523 78-755 limits assumed): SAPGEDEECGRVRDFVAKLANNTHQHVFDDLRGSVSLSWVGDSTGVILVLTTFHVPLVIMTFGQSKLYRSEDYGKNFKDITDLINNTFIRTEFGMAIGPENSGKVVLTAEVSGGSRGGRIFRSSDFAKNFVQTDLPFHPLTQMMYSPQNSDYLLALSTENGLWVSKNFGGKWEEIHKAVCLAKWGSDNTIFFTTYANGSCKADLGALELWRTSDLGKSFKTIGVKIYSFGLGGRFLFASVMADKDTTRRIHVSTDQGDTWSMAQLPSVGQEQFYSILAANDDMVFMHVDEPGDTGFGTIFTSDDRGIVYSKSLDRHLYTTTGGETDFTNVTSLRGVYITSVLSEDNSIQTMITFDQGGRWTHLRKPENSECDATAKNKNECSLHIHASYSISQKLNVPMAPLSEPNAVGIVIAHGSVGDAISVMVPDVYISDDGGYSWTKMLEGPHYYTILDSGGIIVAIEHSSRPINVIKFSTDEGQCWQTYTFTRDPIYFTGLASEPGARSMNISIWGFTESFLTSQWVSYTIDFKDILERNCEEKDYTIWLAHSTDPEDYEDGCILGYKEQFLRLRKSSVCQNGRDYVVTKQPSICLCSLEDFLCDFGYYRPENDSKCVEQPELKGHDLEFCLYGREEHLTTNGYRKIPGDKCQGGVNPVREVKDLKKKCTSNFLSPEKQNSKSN
The assay can be described thus: Human Sortilin GCI (Grating-Coupled Interferometry) binding assay. The conditions noted are these: Creoptix WAVE-RAPID, single concentration (usually 1 µM, 10 µM or 100 µM), immobilised Human (6-His)Sortilin, 1:1 kinetic binding model.
For the molecule `CC(C)(C)CCC(Nc1ncnc2cnccc12)c1nn[nH]n1` (racemic) [Example 88, [4,4-dimethyl-1-(2H-tetraazol-5-yl)pentyl]-1,3,7-triaza-4-naphthylamine], the Kd (as a rule, the free concentration of one partner at which half of the binding sites on the other are occupied at equilibrium, for simple one-to-one binding) worked out at 0.426 µM. This counts as sub-micromolar. Consider `CC(C)(C)CCC(Nc1ncnc2cc(Br)ccc12)c1nn[nH]n1` (racemic) [Example 90, [4,4-dimethyl-1-(2H-tetraazol-5-yl)pentyl](7-bromo-4-quinazolinyl)amine], for which the equilibrium dissociation constant (Kd) came out at 0.284 µM. This Kd is about 1.5-fold lower than that of the molecule before. Then `CC(C)CCC(Nc1ncnc2ccccc12)c1nnn[nH]1` (racemic) [Example 101, N-(4-methyl-1-(1H-tetrazol-5-yl)pentyl)quinazolin-4-amine], with 18.3 µM. `CC(C)CC(Nc1ncnc2ccccc12)c1nn[nH]n1` (racemic) [Example 103, [3-methyl-1-(2H-tetraazol-5-yl)butyl]-4-quinazolinylamine] registered a Kd of 25.5 µM. Then `CC(C)CC(Nc1ccncc1)c1nnn[nH]1` (racemic) [Example 104, N-(3-methyl-1-(1H-tetrazol-5-yl)butyl)pyridin-4-amine], with 74.2 µM; and `CC(C)CC(Nc1ccncn1)c1nn[nH]n1` (racemic) [Example 105, [3-methyl-1-(2H-tetraazol-5-yl)butyl]-4-pyrimidinylamine], with 187 µM; and `CC(C)(C)CC[C@@H](Nc1ccc2ccccc2n1)c1nn[nH]n1` (single isomer, unassigned) [Example 95], with 6.07 µM.

Molecule `CC(C)(C)CC[C@H](Nc1ccc2ccccc2n1)c1nn[nH]n1` (single isomer, unassigned) [Example 96] showed a Kd of 0.912 µM. Against the preceding molecule, the Kd is about 6.7-fold lower. Under `CC(C)(C)CC[C@H](Nc1cccnc1)c1nn[nH]n1` (single isomer, unassigned) [Example 99] stands 1.56 µM; under `CC(C)(C)CC[C@@H](Nc1cccnc1)c1nn[nH]n1` (single isomer, unassigned) [Example 100], 6.22 µM; under `CC(C)(C)CC[C@H](Nc1cncc2ccccc12)C(=O)O` [Example 29, (S)-2-(isoquinolin-4-ylamino)-5,5-dimethylhexanoic acid], 0.0578 µM.

Molecule “N-phenyl[4,4-dimethyl-1-(2H-tetraazol-5-yl)pentyl]amine [Example 39]” registered a Kd of 2.84 µM. This Kd is about 49-fold higher than that of the molecule before.
